Type in all cases: biochemical
In experiment [1] the target is T1, Alzheimer's Aβ 1-42 amyloid fibrils (Homo sapiens, UniProt P05067).
T1 construct: 1 mg of Aβ 1-42 (Bachem Inc., Torrance, Calif., USA) was dissolved; purchased Bachem Inc., Torrance, Calif., USA
Briefly: Disassembly/disruption of pre-formed Aβ 1-42 fibrils, Thioflavin T fluorometry. The settings on record: for inhibition at 100 µg/mL: read-out: Fluorescence inhibition, %, at the Aβ 1-42:compound w/w ratio 1:1. How it is done: For the first study, 1 mg of Aβ 1-42 (Bachem Inc., Torrance, Calif., USA) was dissolved in 1.0 ml of double distilled water (1 mg/ml solution). 25 μM of Aβ 1-42 was then incubated overnight (˜18 hours) at 37° C., in the absence or presence of 100 μg/ml of the following compounds: 1) EDTA (Sigma Chemical Company, St. Louis, Mo., USA), 2) myricetin (Acros, Somerville, N.J., USA), 3) exifone (Acros) 4) pyrogallol (Sigma), 5) tannic acid (Acros), 6) pyrocatechol (Acros), 7) quercetin (Sigma), 8) ellagic acid (Acros), 9) 1,2,4-benzenetriol (Acros), 10) 5-hydroxydopamine (Acros), 11) gallamide hydrate (Acros), 12) gallic acid (Sigma), 13) ethyl gallate (Acros), 14) quinic acid (Acros), 15) propyl gallate (Sigma), and 16) phloroglucide (Acros), each in the presence of 150 mM Tris HCl, 10 mM NaCl (pH 7.0) with 0.02% sodium azide. In this study, the A 1-42:compound weight ratio was 1:1. […]
Thioflavin T is known to bind to fibrillar amyloid proteins, and an increase in fluorescence correlates with an increase in amyloid fibril formation, whereas a decrease in fluorescence correlates with a decrease in amyloid fibrils due to disassembly and/or disruption. The Alzheimer's Aβ protein (1-42) when placed in solution, such as distilled water, tends to spontaneously form amyloid fibrils. Using this sensitive assay, any decreases or increases in fluorescence was previously shown to correlate with a decrease or increase in the amount of amyloid fibrils (see the documents cited above), allowing one to identify and quantitate the extent of potential inhibitors and/or enhancers of Alzheimer's Aβ 1-42 amyloid fibrils.
To assess the effects of each compound on potential disassembly/disruption of preformed Aβ 1-42 fibrils, 50 μl of Aβ 1-42 with or without test compounds (described above) were added to 1.2 ml of 100 μM Thioflavin T (Sigma) in 50 mM NaH2PO4 (pH 6.0) for fluorometry readings. […] Fluorescence emission at 482 nm was measured on a Turner instrument-model 450 fluorometer at an excitation wavelength of 450 nm. For each determination, the fluorometer was calibrated by zeroing in the presence of the Thioflavin T reagent alone, and by setting the 50 ng/ml riboflavin (Sigma Chemical Co., St. Louis, Mo.) in the Thioflavin T reagent to 1800 fluorescence units. All fluorescence determinations were based on these references and any fluorescence given off by any of the compounds in the presence of the Thioflavin T reagent was always subtracted from all pertinent readings.
For all fibrillogenesis studies utilizing Thioflavin T fluorometry, as disclosed herein, comparisons of amyloid protein in the presence or absence of test compounds were based on paired Student's t tests with data shown as the mean of triplicate measurements±standard deviation.

For the next experiment, the target named is T2, human amylin fibrils (Homo sapiens, UniProt P10997).
T2 construct: This amyloid protein involved consists of a 37 amino acid protein known as islet amyloid polypeptide or amylin; purchased Bachem
T2 sequence (P10997 34-70 limits assumed): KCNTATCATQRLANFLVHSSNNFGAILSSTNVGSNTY
Kind of experiment: Congo red staining of amylin fibrils on slides. To be noted: overnight incubation of amylin with compound, compared with amylin alone. How it is done:
Following Thioflavin T fluorometry readings as described in Example 1, 5 μl aliquots of amylin only, amylin+myricetin, amylin+exifone, and amylin+tannic acid were also taken, allowed to air dry overnight on gelatin-coated slides, and stained with Congo red as previously described (Castillo et al., Diabetes 47:612-620, 1998).

Another experiment concerns the target T3, Aβ 1-40 amyloid fibrils (Homo sapiens, UniProt P05067).
T3 construct: 1 mg of Aβ 1-40 (Bachem Inc., Torrance, Calif., USA; Lot # T-20824) was dissolved; purchased Bachem Inc., Torrance, Calif., USA
Kind of experiment: Dose-dependent disaggregation of fibrillized Aβ 1-40, Congo red-Aβ spectrophotometric assay. The settings on record: w/w 1:1, 100 μg/ml compound, 25 μM Aβ 1-40, overnight (~18 hours) at 37° C. The procedure:
In this study, a Congo red-Aβ spectrophotometric assay (Klunk et al., Anal. Biochem. 266:66-76, 1999) was modified to determine the effectiveness of polyhydroxylated aromatic compounds on the disaggregation of pre-formed Aβ 1-40 amyloid fibrils. For this assay, 1 mg of Aβ 1-40 (Bachem) was incubated for 4 days in distilled water at 37° C. to spontaneously produce amyloid fibrils. […] Following incubation, 50 μl of 360 μM Congo red (Sigma) in distilled water was then added to 250 μl of each incubation mixture, giving a final Aβ:Congo red molar ratio of 1:3. After 10 minutes, the absorbance at 405 nm (reference wavelength to account for the absorbance of Congo red alone at 540 nm) and 540 nm (sample absorbance where “sample” refers to Aβ alone, test compound alone, or Aβ plus test compound, all in the presence of Congo red) was determined using a Biorad Model 550 ELISA Plate Reader (Biorad, Hercules, Calif., USA). The absorbance at wavelength 405 nm was automatically subtracted by the ELISA plate reader from the absorbance at wavelength 540 nm (difference is referred to as A absorbance)(see Klunk et al. cited above). Therefore, the A absorbance reading at 540 nm was proportional to the amount of aggregated Aβ left in solution (Klunk et al.). […]
In this study, the potential dose-dependent effects of tannic acid and gallic acid on the disaggregation of fibrillized Aβ 1-40 was assessed. […]

[2] abbreviates: Aβ 1-42:compound w/w 1:1, 100 μg/ml compound, 25 μM Aβ 1-42, overnight (~18 hours) at 37° C., mean of triplicate ± SD.

The results in this text go back to patent US20070191330A1, “Polyhydroxylated aromatic compounds for the treatment of amyloidosis and alpha-synuclein fibril diseases” (Proteotech, Inc., priority 1999, published 2007).

Like-named read-outs stand apart in the source and are kept apart here.

T1 sequence (P05067 672-713): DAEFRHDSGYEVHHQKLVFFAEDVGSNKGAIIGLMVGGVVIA
T3 sequence (P05067 672-711): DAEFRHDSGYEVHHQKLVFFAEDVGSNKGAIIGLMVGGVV

For the compound `Oc1ccc(O)c(O)c1` [1,2,4-Benzenetriol, 1,2,4-benzenetriol], the inhibition at 100 µg/mL in experiment [1] (setting [2]) was 71 ± 3.3%.

As to `NCCc1cc(O)c(O)c(O)c1` [5-Hydroxydopamine, 5-hydroxydopamine], the inhibition at 100 µg/mL in experiment [1] (setting [2]) worked out at 70 ± 1.1%.

`O=C(O)CN(CCN(CC(=O)O)CC(=O)O)CC(=O)O` [EDTA, reference compound]: in experiment [1] (100 μg/ml, 25 μM Aβ 1-42, overnight (~18 hours) at 37° C., Thioflavin T fluorometry), the “Disassembly/disruption of Aβ 1-42 amyloid fibrils (result in words)” value is reported as “no significant disassembly/disruption”.

`O=c1oc2c(O)c(O)cc3c(=O)oc4c(O)c(O)cc1c4c23` [Ellagic acid, ellagic acid]: the inhibition at 100 µg/mL in experiment [1] (setting [2]) turned out to be 74 ± 1.4%.

Turning to `CCOC(=O)c1cc(O)c(O)c(O)c1` [Ethyl gallate, ethyl gallate], in experiment [1] (setting [2]), the inhibition at 100 µg/mL is 49 ± 0.8%.

As for `O=C(c1cc(O)c(O)c(O)c1)c1ccc(O)c(O)c1O` [Exifone, exifone], the inhibition at 100 µg/mL in experiment [1] (18 h) stood at 93 ± 1.4%. Further, on human amylin fibrils, the “Congo red staining of amylin fibrils (red/green birefringence under polarized light)” value is given as “marked decrease in Congo red staining”.

Regarding `NC(=O)c1cc(O)c(O)c(O)c1` [Gallamide trihydrate, gallamide trihydrate], in experiment [1] (18 h), the inhibition at 100 µg/mL is 65 ± 12.3%.

Regarding `O=C(O)c1cc(O)c(O)c(O)c1` [Gallic acid, gallic acid], the inhibition at 100 µg/mL in experiment [1] (setting [2]) came out at 57 ± 1.9%. Besides, the “Decrease in absorbance, %, at the Aβ 1-40:compound w/w ratio 1:1” value on Aβ 1-40 amyloid fibrils was 32 ± 4.8%.

For `O=c1c(O)c(-c2cc(O)c(O)c(O)c2)oc2cc(O)cc(O)c12` [Myricetin, myricetin], the inhibition at 100 µg/mL in experiment [1] (18 h) worked out at 94 ± 0.9%. Besides, the “Congo red staining of amylin fibrils (red/green birefringence under polarized light)” value at human amylin fibrils is recorded as “marked decrease in Congo red staining”.

Turning to `CCCOC(=O)c1cc(O)c(O)c(O)c1` [Propyl gallate, propyl gallate], in experiment [1] (setting [2]), the inhibition at 100 µg/mL is 29 ± 2.8%.

As to `Oc1ccccc1O` [Pyrocatechol, pyrocatechol], in experiment [1] (setting [2]), the inhibition at 100 µg/mL amounted to 77 ± 2.6%.

`Oc1cccc(O)c1O` [Pyrogallol, pyrogallol]: the inhibition at 100 µg/mL in experiment [1] (setting [2]) turned out to be 89 ± 6.7%.

As for `O=c1c(O)c(-c2ccc(O)c(O)c2)oc2cc(O)cc(O)c12` [Quercetin, quercetin], in experiment [1] (setting [2]), the “Fluorescence inhibition, %, at the Aβ 1-42:compound w/w ratio 1:1” value was 76 ± 0.6%.

As to `O=C(O)[C@]1(O)C[C@@H](O)[C@@H](O)[C@H](O)C1` [Quinic acid, quinic acid], the inhibition at 100 µg/mL in experiment [1] (setting [2]) stood at 31 ± 9%.

Consider `O=C(OC[C@H]1O[C@@H](OC(=O)c2cc(O)c(O)c(OC(=O)c3cc(O)c(O)c(O)c3)c2)[C@H](OC(=O)c2cc(O)c(O)c(OC(=O)c3cc(O)c(O)c(O)c3)c2)[C@@H](OC(=O)c2cc(O)c(O)c(OC(=O)c3cc(O)c(O)c(O)c3)c2)[C@@H]1OC(=O)c1cc(O)c(O)c(OC(=O)c2cc(O)c(O)c(O)c2)c1)c1cc(O)c(O)c(OC(=O)c2cc(O)c(O)c(O)c2)c1` [Tannic acid, tannic acid], for which the inhibition at 100 µg/mL in experiment [1] (18 h) worked out at 77 ± 1.3%. Further, on human amylin fibrils, the “Congo red staining of amylin fibrils (red/green birefringence under polarized light)” value is “marked decrease in Congo red staining”.
